In patent US20230141569A1, “FLUORESCENT DYE, AND PREPARATION METHOD AND USES THEREOF” (FLUORESCENCE DIAGNOSIS (SHANGHAI) BIOTECH COMPANY LTD., priority 2020, published 2023):

test system: not listed separately; assay: Fluorescence emission at different viscosity conditions, diethanol-glycerol mixed solution (Test Example 2); format: physicochemical; settings: 1×10^−5 M, excited at 480 nm

SMILES	fluorescence intensity at different viscosity conditions
CN1C(=O)/C(=C/c2cc(F)c(O)c(F)c2)N=C1/C=C/c1ccc(C#N)cc1 [IV-1]	gradually increasing fluorescence intensity
CN1C(=O)/C(=C/c2cc(F)c(O)c(F)c2)N=C1/C=C/c1cccc(C#N)c1 [IV-2]	gradually increasing fluorescence intensity
CN1C(=O)/C(=C/c2cc(F)c(O)c(F)c2)N=C1/C=C/c1ccc(O)cc1 [IV-3]	gradually increasing fluorescence intensity
CN1C(=O)/C(=C/c2cc(F)c(O)c(F)c2)N=C1/C=C/c1cccc(O)c1 [IV-4]	gradually increasing fluorescence intensity
CN1C(=O)/C(=C/c2cc(F)c(O)c(F)c2)N=C1/C=C/c1ccc(F)cc1 [IV-5]	gradually increasing fluorescence intensity
CN1C(=O)/C(=C/c2cc(F)c(O)c(F)c2)N=C1/C=C/c1cccc(F)c1 [IV-6]	gradually increasing fluorescence intensity
CN1C(=O)/C(=C/c2ccc(N(C)CCO)cc2)N=C1/C=C/c1cccc(O)c1 [IV-17]	gradually increasing fluorescence intensity
CN1C(=O)/C(=C/c2ccc(N(C)CCO)cc2)N=C1/C=C/c1cccc(C#N)c1 [IV-18]	gradually increasing fluorescence intensity
CN1C(=O)/C(=C/c2ccc(N(C)CCO)cc2)N=C1/C=C/c1cccc(F)c1 [IV-19]	gradually increasing fluorescence intensity

test system: RNA aptamer; assay: Optical properties after binding to RNA aptamer (Test Example 4); format: biochemical; settings: after binding to RNA aptamer

SMILES	Em/nm [nm]	Ex/nm [nm]	ε [M⁻¹ cm⁻¹]
CN1C(=O)/C(=C/c2cc(F)c(O)c(F)c2)N=C1/C=C/c1ccc(C#N)cc1 [IV-1]	618	510	20667
CN1C(=O)/C(=C/c2cc(F)c(O)c(F)c2)N=C1/C=C/c1cccc(C#N)c1 [IV-2]	595	492	25000
CN1C(=O)/C(=C/c2cc(F)c(O)c(F)c2)N=C1/C=C/c1ccc(O)cc1 [IV-3]	565	490	26000
CN1C(=O)/C(=C/c2cc(F)c(O)c(F)c2)N=C1/C=C/c1cccc(O)c1 [IV-4]	574	490	23333
CN1C(=O)/C(=C/c2cc(F)c(O)c(F)c2)N=C1/C=C/c1ccc(F)cc1 [IV-5]	570	492	23000
CN1C(=O)/C(=C/c2cc(F)c(O)c(F)c2)N=C1/C=C/c1cccc(F)c1 [IV-6]	578	490	24000
CN1C(=O)/C(=C/c2ccc(N(C)CCO)cc2)N=C1/C=C/c1cccc(O)c1 [IV-17]	582	524	32000
CN1C(=O)/C(=C/c2ccc(N(C)CCO)cc2)N=C1/C=C/c1cccc(C#N)c1 [IV-18]	600	536	25000
CN1C(=O)/C(=C/c2ccc(N(C)CCO)cc2)N=C1/C=C/c1cccc(F)c1 [IV-19]	590	522	30000

same assay, conditions: after binding to RNA aptamer; relative method with Rhodamine 6G as the standard

SMILES	QY (−)
CN1C(=O)/C(=C/c2cc(F)c(O)c(F)c2)N=C1/C=C/c1ccc(C#N)cc1 [IV-1]	0.17
CN1C(=O)/C(=C/c2cc(F)c(O)c(F)c2)N=C1/C=C/c1cccc(C#N)c1 [IV-2]	0.36
CN1C(=O)/C(=C/c2cc(F)c(O)c(F)c2)N=C1/C=C/c1ccc(O)cc1 [IV-3]	0.27
CN1C(=O)/C(=C/c2cc(F)c(O)c(F)c2)N=C1/C=C/c1cccc(O)c1 [IV-4]	0.37
CN1C(=O)/C(=C/c2cc(F)c(O)c(F)c2)N=C1/C=C/c1ccc(F)cc1 [IV-5]	0.33
CN1C(=O)/C(=C/c2cc(F)c(O)c(F)c2)N=C1/C=C/c1cccc(F)c1 [IV-6]	0.37
CN1C(=O)/C(=C/c2ccc(N(C)CCO)cc2)N=C1/C=C/c1cccc(O)c1 [IV-17]	0.47
CN1C(=O)/C(=C/c2ccc(N(C)CCO)cc2)N=C1/C=C/c1cccc(C#N)c1 [IV-18]	0.43
CN1C(=O)/C(=C/c2ccc(N(C)CCO)cc2)N=C1/C=C/c1cccc(F)c1 [IV-19]	0.43

same assay, conditions: excited at a suitable wavelength

SMILES	compound fluorescence after binding to RNA aptamer
CN1C(=O)/C(=C/c2cc(F)c(O)c(F)c2)N=C1/C=C/c1ccc(C#N)cc1 [IV-1]	noticeably activated
CN1C(=O)/C(=C/c2cc(F)c(O)c(F)c2)N=C1/C=C/c1cccc(C#N)c1 [IV-2]	noticeably activated
CN1C(=O)/C(=C/c2cc(F)c(O)c(F)c2)N=C1/C=C/c1ccc(O)cc1 [IV-3]	noticeably activated
CN1C(=O)/C(=C/c2cc(F)c(O)c(F)c2)N=C1/C=C/c1cccc(O)c1 [IV-4]	noticeably activated
CN1C(=O)/C(=C/c2cc(F)c(O)c(F)c2)N=C1/C=C/c1ccc(F)cc1 [IV-5]	noticeably activated
CN1C(=O)/C(=C/c2cc(F)c(O)c(F)c2)N=C1/C=C/c1cccc(F)c1 [IV-6]	noticeably activated
CN1C(=O)/C(=C/c2ccc(N(C)CCO)cc2)N=C1/C=C/c1cccc(O)c1 [IV-17]	noticeably activated
CN1C(=O)/C(=C/c2ccc(N(C)CCO)cc2)N=C1/C=C/c1cccc(C#N)c1 [IV-18]	noticeably activated
CN1C(=O)/C(=C/c2ccc(N(C)CCO)cc2)N=C1/C=C/c1cccc(F)c1 [IV-19]	noticeably activated

test system: not listed separately; assay: Viscosity response: fluorescence in glycerin vs methanol (Test Example 1); format: physicochemical; settings: final concentration 1×10^−5 M, excited at maximum excitation wavelength of each dye

SMILES	Glycerin/Methanol Fluorescence Intensity Ratio
CN1C(=O)/C(=C/c2cc(F)c(O)c(F)c2)N=C1/C=C/c1ccc(C#N)cc1 [IV-1]	987
CN1C(=O)/C(=C/c2cc(F)c(O)c(F)c2)N=C1/C=C/c1cccc(C#N)c1 [IV-2]	687
CN1C(=O)/C(=C/c2cc(F)c(O)c(F)c2)N=C1/C=C/c1ccc(O)cc1 [IV-3]	951
CN1C(=O)/C(=C/c2cc(F)c(O)c(F)c2)N=C1/C=C/c1cccc(O)c1 [IV-4]	687
CN1C(=O)/C(=C/c2cc(F)c(O)c(F)c2)N=C1/C=C/c1ccc(F)cc1 [IV-5]	861
CN1C(=O)/C(=C/c2cc(F)c(O)c(F)c2)N=C1/C=C/c1cccc(F)c1 [IV-6]	921
CN1C(=S)/C(=C/c2cc(F)c(O)c(F)c2)N=C1/C=C/c1ccc(F)cc1 [IV-7]	873
CN1C(=S)/C(=C/c2cc(F)c(O)c(F)c2)N=C1/C=C/c1ccc(C#N)cc1 [IV-8]	861
CN1C(=O)/C(=C/c2ccc(O)c(F)c2)N=C1/C=C/c1ccc(C#N)cc1 [IV-9]	697
CCN1C(=O)/C(=C/c2cc(F)c(O)c(Cl)c2)N=C1/C=C/c1ccc(C#N)cc1 [IV-10]	779
CCCN1C(=O)/C(=C/c2cc(F)c(O)c(I)c2)N=C1/C=C/c1ccc(Cl)cc1 [IV-12]	898
CN1C(=O)/C(=C/c2cc(Cl)c(O)c(Cl)c2)N=C1/C=C/c1ccc(Br)cc1 [IV-13]	711
CCN1C(=O)/C(=C/c2ccc(O)c(Cl)c2)N=C1/C=C/c1ccc(I)cc1 [IV-14]	699
CN1C(=O)/C(=C/c2ccc(O)c(Br)c2)N=C1/C=C/c1cccc(Cl)c1 [IV-15]	730
CN1C(=O)/C(=C/c2ccc(N(C)CCO)cc2)N=C1/C=C/c1cccc(O)c1 [IV-17]	655
CN1C(=O)/C(=C/c2ccc(N(C)CCO)cc2)N=C1/C=C/c1cccc(C#N)c1 [IV-18]	890
CN1C(=O)/C(=C/c2ccc(N(C)CCO)cc2)N=C1/C=C/c1cccc(F)c1 [IV-19]	821

same assay, conditions: final concentration 1×10^−5 M, glycerin and methanol

SMILES	Maximum Excitation Wavelength (nm)
CN1C(=O)/C(=C/c2cc(F)c(O)c(F)c2)N=C1/C=C/c1ccc(C#N)cc1 [IV-1]	618
CN1C(=O)/C(=C/c2cc(F)c(O)c(F)c2)N=C1/C=C/c1cccc(C#N)c1 [IV-2]	595
CN1C(=O)/C(=C/c2cc(F)c(O)c(F)c2)N=C1/C=C/c1ccc(O)cc1 [IV-3]	565
CN1C(=O)/C(=C/c2cc(F)c(O)c(F)c2)N=C1/C=C/c1cccc(O)c1 [IV-4]	574
CN1C(=O)/C(=C/c2cc(F)c(O)c(F)c2)N=C1/C=C/c1ccc(F)cc1 [IV-5]	570
CN1C(=O)/C(=C/c2cc(F)c(O)c(F)c2)N=C1/C=C/c1cccc(F)c1 [IV-6]	578
CN1C(=S)/C(=C/c2cc(F)c(O)c(F)c2)N=C1/C=C/c1ccc(F)cc1 [IV-7]	570
CN1C(=S)/C(=C/c2cc(F)c(O)c(F)c2)N=C1/C=C/c1ccc(C#N)cc1 [IV-8]	638
CN1C(=O)/C(=C/c2ccc(O)c(F)c2)N=C1/C=C/c1ccc(C#N)cc1 [IV-9]	615
CCN1C(=O)/C(=C/c2cc(F)c(O)c(Cl)c2)N=C1/C=C/c1ccc(C#N)cc1 [IV-10]	620
CCCN1C(=O)/C(=C/c2cc(F)c(O)c(I)c2)N=C1/C=C/c1ccc(Cl)cc1 [IV-12]	573
CN1C(=O)/C(=C/c2cc(Cl)c(O)c(Cl)c2)N=C1/C=C/c1ccc(Br)cc1 [IV-13]	590
CCN1C(=O)/C(=C/c2ccc(O)c(Cl)c2)N=C1/C=C/c1ccc(I)cc1 [IV-14]	585
CN1C(=O)/C(=C/c2ccc(O)c(Br)c2)N=C1/C=C/c1cccc(Cl)c1 [IV-15]	586
CN1C(=O)/C(=C/c2ccc(N(C)CCO)cc2)N=C1/C=C/c1cccc(O)c1 [IV-17]	575
CN1C(=O)/C(=C/c2ccc(N(C)CCO)cc2)N=C1/C=C/c1cccc(C#N)c1 [IV-18]	595
CN1C(=O)/C(=C/c2ccc(N(C)CCO)cc2)N=C1/C=C/c1cccc(F)c1 [IV-19]	577

test system: RNA aptamer; assay: Labeling intracellular RNA aptamer in cells (Test Example 4, FIG. 20A/20B); format: cell-based; settings: FIG. 20A
Description: FIGS. 20A and 20B are the application of molecular rotors IV-1, IV-2, IV-3, IV-4, IV-5, IV-6, IV-17, IV-18, IV-19, IV-20, IV-21, IV-22 in labeling intracellular RNA aptamer, wherein FIG. 20A are cells expressing the target RNA aptamer, and FIG. 20B are cells not expressing the target RNA aptamer;

SMILES	fluorescence of cells expressing the RNA aptamer
CN1C(=O)/C(=C/c2cc(F)c(O)c(F)c2)N=C1/C=C/c1ccc(C#N)cc1 [IV-1]	bright fluorescence
CN1C(=O)/C(=C/c2cc(F)c(O)c(F)c2)N=C1/C=C/c1cccc(C#N)c1 [IV-2]	bright fluorescence
CN1C(=O)/C(=C/c2cc(F)c(O)c(F)c2)N=C1/C=C/c1ccc(O)cc1 [IV-3]	bright fluorescence
CN1C(=O)/C(=C/c2cc(F)c(O)c(F)c2)N=C1/C=C/c1cccc(O)c1 [IV-4]	bright fluorescence
CN1C(=O)/C(=C/c2cc(F)c(O)c(F)c2)N=C1/C=C/c1ccc(F)cc1 [IV-5]	bright fluorescence
CN1C(=O)/C(=C/c2cc(F)c(O)c(F)c2)N=C1/C=C/c1cccc(F)c1 [IV-6]	bright fluorescence
CN1C(=O)/C(=C/c2ccc(N(C)CCO)cc2)N=C1/C=C/c1cccc(O)c1 [IV-17]	bright fluorescence
CN1C(=O)/C(=C/c2ccc(N(C)CCO)cc2)N=C1/C=C/c1cccc(C#N)c1 [IV-18]	bright fluorescence
CN1C(=O)/C(=C/c2ccc(N(C)CCO)cc2)N=C1/C=C/c1cccc(F)c1 [IV-19]	bright fluorescence

same assay, conditions: FIG. 20B

SMILES	fluorescence of cells not expressing the RNA aptamer
CN1C(=O)/C(=C/c2cc(F)c(O)c(F)c2)N=C1/C=C/c1ccc(C#N)cc1 [IV-1]	no fluorescence
CN1C(=O)/C(=C/c2cc(F)c(O)c(F)c2)N=C1/C=C/c1cccc(C#N)c1 [IV-2]	no fluorescence
CN1C(=O)/C(=C/c2cc(F)c(O)c(F)c2)N=C1/C=C/c1ccc(O)cc1 [IV-3]	no fluorescence
CN1C(=O)/C(=C/c2cc(F)c(O)c(F)c2)N=C1/C=C/c1cccc(O)c1 [IV-4]	no fluorescence
CN1C(=O)/C(=C/c2cc(F)c(O)c(F)c2)N=C1/C=C/c1ccc(F)cc1 [IV-5]	no fluorescence
CN1C(=O)/C(=C/c2cc(F)c(O)c(F)c2)N=C1/C=C/c1cccc(F)c1 [IV-6]	no fluorescence
CN1C(=O)/C(=C/c2ccc(N(C)CCO)cc2)N=C1/C=C/c1cccc(O)c1 [IV-17]	no fluorescence
CN1C(=O)/C(=C/c2ccc(N(C)CCO)cc2)N=C1/C=C/c1cccc(C#N)c1 [IV-18]	no fluorescence
CN1C(=O)/C(=C/c2ccc(N(C)CCO)cc2)N=C1/C=C/c1cccc(F)c1 [IV-19]	no fluorescence
